In data set [1] the target is T1, Epithelial discoidin domain-containing receptor 1 (Homo sapiens, UniProt Q08345). Kind of data set: Inhibition of DDR1 (unknown origin).
Data set [2] concerns the target T1, Epithelial discoidin domain-containing receptor 1. Briefly: Inhibition of DDR1 (unknown origin) at 10 uM by DiscoverX KINOMEscan assay relative to control.
For data set [3], the target named is T2, Discoidin domain-containing receptor 2 (Homo sapiens, UniProt Q16832).
T2 sequence (Q16832 whole entry): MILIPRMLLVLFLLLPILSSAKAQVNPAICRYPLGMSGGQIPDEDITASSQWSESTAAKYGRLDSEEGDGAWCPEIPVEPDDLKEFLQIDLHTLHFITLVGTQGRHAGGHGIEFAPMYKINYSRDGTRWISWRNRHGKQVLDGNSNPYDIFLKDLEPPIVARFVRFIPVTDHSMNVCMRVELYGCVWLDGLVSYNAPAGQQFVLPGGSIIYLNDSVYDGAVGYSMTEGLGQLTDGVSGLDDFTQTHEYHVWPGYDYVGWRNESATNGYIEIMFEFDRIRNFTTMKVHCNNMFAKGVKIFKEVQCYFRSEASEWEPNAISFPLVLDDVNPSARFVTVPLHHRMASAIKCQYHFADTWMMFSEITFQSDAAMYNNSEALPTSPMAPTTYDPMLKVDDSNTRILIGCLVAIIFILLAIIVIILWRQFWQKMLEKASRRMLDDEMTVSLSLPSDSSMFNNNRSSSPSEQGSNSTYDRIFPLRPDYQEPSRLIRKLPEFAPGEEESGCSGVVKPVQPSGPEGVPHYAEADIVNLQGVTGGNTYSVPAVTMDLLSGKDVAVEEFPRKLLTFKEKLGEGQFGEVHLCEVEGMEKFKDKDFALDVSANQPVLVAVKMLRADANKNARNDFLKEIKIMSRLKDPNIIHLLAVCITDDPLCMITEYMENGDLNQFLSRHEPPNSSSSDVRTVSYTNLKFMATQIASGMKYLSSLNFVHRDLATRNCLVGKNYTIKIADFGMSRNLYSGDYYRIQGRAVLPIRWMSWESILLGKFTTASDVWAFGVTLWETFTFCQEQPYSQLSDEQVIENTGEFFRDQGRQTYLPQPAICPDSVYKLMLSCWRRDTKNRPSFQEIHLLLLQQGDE
Kind of data set: Inhibition of GST-tagged recombinant DDR2 (unknown origin) expressed in Escherichia coli BL21 by DiscoverX KINOMEscan assay.

Data set [4] concerns the target T1, Epithelial discoidin domain-containing receptor 1. Briefly: Inhibition of GST-tagged recombinant DDR1 (unknown origin) expressed in Escherichia coli BL21 by DiscoverX KINOMEscan assay.
Data set [5] concerns the target T2, Discoidin domain-containing receptor 2. Briefly: Inhibition of DDR2 (unknown origin) using Fluorescein-Poly GAT as substrate by TR-FRET analysis. (Time-resolved FRET reads energy transfer from a long-lived donor to a nearby acceptor.)
Data set [6] addresses T1, Epithelial discoidin domain-containing receptor 1. Briefly: Inhibition of DDR1 (unknown origin) using Fluorescein-Poly GAT as substrate by TR-FRET analysis.
A short description of data set [7]: Clearance in C57BL/6 mouse at 1 mg/kg, iv measured upto 8 hrs by HPLC analysis. Format: ADME, organism-based. As to conditions: in vivo.
The nature of data set [8]: Clearance in human liver microsomes measured upto […] by HPLC-MS/MS analysis. The class given is ADME, Microsome.
The target of data set [9] is T1, Epithelial discoidin domain-containing receptor 1. Kind of data set: Binding affinity to DDR1 (unknown origin) assessed as dissociation constant.
A further data set has as its system U2OS. Briefly: Antiproliferative activity against human U2OS cells […] assessed as reduction in cell viability incubated for 24 hrs by MTT assay. Format: functional, cell-based. (In general: Formazan colour is commonly taken as a measure of viable cells.)
Data set [10] has as its target Vascular endothelial growth factor receptor 2 (Homo sapiens) (UniProt P35968). Briefly: Inhibition of KDR (unknown origin) at 100 nM by ADP-Glo assay relative to control. Background: ADP-Glo first removes unused ATP, then detects ADP through luciferase.
The target in data set [11] is T2, Discoidin domain-containing receptor 2. Kind of data set: Inhibition of human DDR2 by discoverX kinome scan assay.
A short description of data set [12]: Aqueous solubility of compound in phosphate buffer at pH 6.5. The class given is physicochemical.
The nature of data set [13]: Microsomal stability in rat liver microsomes assessed as intrinsic clearance. The class given is ADME, Microsome.
In data set [14] the target is T1, Epithelial discoidin domain-containing receptor 1. Briefly: Inhibition of flag-tagged DDR1 (unknown origin) by TR-FRET assay.
Data set [15] has as its target Proto-oncogene tyrosine-protein kinase receptor Ret (Homo sapiens) (UniProt P07949). Kind of data set: Inhibition of RET (unknown origin) at 100 uM using Poly(4:1 Glu, Tyr) as substrate in presence of ATP by absorbance based analysis relative to control.
Data set [16] deals with Vascular endothelial growth factor receptor 2 (Homo sapiens) (UniProt P35968). Kind of data set: Inhibition of KDR (unknown origin) at 100 nM relative to control.
Chain of Vascular endothelial growth factor receptor 2 (Homo sapiens) (P35968 whole entry, the tested form may be a part): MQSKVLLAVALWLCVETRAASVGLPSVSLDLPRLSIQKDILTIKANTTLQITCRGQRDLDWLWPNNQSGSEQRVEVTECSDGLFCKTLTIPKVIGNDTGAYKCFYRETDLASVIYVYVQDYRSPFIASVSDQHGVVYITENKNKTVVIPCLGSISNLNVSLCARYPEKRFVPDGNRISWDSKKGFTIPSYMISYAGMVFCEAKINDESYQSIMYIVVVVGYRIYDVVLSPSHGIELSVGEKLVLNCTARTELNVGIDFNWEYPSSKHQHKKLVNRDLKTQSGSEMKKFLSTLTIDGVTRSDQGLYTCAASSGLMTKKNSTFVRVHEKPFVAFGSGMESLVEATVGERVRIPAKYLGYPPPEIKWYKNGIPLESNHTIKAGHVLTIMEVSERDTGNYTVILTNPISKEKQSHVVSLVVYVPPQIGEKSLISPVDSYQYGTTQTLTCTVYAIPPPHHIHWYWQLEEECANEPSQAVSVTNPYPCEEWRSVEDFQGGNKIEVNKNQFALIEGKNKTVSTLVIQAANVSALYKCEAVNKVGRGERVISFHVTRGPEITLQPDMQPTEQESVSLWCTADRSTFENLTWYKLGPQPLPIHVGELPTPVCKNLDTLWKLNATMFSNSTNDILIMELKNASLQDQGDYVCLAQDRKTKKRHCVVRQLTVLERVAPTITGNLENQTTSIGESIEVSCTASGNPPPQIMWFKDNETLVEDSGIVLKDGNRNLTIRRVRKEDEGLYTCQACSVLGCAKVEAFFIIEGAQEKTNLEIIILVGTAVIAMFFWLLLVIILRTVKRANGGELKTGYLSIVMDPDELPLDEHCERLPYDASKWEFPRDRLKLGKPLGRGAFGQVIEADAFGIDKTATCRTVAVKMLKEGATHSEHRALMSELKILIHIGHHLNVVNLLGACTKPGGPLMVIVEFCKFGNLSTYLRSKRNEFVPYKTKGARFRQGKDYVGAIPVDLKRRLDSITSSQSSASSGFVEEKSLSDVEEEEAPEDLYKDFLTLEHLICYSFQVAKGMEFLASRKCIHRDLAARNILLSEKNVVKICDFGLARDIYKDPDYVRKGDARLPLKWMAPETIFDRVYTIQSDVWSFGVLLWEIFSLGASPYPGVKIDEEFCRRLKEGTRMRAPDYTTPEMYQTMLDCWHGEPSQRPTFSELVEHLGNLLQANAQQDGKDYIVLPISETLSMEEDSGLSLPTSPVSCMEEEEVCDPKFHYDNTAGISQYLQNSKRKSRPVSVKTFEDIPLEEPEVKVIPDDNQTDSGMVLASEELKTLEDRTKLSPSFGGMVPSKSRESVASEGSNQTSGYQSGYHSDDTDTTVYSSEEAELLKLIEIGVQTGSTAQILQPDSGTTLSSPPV
In data set [17] the target is T2, Discoidin domain-containing receptor 2. Kind of data set: Inhibition of flag-tagged DDR2 (unknown origin) by TR-FRET assay.
In data set [18] the target is Receptor-type tyrosine-protein kinase FLT3 (Homo sapiens) (UniProt P36888). Briefly: Inhibition of FLT3 (unknown origin) at 100 nM relative to control.
Chain of Receptor-type tyrosine-protein kinase FLT3 (Homo sapiens) (P36888 whole entry, the tested form may be a part): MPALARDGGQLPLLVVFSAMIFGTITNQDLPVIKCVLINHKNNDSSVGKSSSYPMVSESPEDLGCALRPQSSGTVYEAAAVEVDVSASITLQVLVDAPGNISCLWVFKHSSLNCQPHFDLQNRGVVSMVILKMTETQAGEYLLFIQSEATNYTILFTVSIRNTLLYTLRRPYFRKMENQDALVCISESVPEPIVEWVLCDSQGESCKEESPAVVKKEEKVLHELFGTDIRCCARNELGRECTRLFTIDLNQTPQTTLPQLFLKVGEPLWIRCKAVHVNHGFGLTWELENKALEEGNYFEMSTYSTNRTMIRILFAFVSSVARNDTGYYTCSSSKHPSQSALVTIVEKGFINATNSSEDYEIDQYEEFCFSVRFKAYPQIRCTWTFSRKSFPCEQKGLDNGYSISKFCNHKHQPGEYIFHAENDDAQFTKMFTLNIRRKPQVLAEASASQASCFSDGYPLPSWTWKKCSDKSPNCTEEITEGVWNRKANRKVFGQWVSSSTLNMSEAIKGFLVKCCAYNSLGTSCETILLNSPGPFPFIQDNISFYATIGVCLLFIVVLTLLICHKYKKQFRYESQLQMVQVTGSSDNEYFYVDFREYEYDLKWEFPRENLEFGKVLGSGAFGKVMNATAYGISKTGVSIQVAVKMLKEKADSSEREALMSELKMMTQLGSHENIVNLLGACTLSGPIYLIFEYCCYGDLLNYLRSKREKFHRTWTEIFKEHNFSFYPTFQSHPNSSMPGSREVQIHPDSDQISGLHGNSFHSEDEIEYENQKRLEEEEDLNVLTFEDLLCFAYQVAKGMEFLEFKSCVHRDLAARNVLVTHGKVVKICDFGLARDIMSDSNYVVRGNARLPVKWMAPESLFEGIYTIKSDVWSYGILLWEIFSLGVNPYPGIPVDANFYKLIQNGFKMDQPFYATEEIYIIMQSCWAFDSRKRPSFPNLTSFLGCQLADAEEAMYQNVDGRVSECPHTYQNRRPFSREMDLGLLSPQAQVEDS
Data set [19] concerns the target T2, Discoidin domain-containing receptor 2. Briefly: Inhibition of DDR2 (unknown origin) by ADP-Glo assay.

Values after ≈ are worked out from the molar mass of the structure shown.

We go through 17 molecules from ChEMBL document CHEMBL5512631, “Research progress of DDR1 inhibitors in the treatment of multiple human diseases” (Eur J Med Chem, 2024).

T1 sequence (Q08345 whole entry, the tested form may be a part): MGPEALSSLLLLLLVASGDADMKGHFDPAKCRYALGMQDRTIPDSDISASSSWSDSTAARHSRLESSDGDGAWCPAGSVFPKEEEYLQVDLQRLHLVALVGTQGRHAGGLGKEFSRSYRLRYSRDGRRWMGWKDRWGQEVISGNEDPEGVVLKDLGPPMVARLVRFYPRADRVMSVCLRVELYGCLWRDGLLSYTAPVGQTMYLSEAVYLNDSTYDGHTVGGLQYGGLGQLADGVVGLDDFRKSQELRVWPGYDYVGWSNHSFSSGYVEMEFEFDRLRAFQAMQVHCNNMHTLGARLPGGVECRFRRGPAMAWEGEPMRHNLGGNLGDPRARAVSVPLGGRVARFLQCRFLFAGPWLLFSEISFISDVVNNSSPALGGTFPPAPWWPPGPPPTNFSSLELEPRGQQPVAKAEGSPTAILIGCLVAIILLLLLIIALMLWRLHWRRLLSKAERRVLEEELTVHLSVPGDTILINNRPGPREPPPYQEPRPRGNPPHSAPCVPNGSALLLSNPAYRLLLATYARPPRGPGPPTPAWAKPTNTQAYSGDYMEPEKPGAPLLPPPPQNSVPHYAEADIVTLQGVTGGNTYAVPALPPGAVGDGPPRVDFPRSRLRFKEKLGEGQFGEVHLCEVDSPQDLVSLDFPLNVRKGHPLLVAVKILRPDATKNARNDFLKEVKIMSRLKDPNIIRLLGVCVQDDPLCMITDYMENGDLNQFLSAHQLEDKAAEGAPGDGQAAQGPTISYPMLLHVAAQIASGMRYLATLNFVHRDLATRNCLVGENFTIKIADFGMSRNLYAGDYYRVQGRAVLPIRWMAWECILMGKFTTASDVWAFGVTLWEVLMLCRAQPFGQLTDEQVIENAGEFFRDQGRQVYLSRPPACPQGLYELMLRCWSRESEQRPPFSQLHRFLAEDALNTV
Chain of Proto-oncogene tyrosine-protein kinase receptor Ret (Homo sapiens) (P07949 whole entry): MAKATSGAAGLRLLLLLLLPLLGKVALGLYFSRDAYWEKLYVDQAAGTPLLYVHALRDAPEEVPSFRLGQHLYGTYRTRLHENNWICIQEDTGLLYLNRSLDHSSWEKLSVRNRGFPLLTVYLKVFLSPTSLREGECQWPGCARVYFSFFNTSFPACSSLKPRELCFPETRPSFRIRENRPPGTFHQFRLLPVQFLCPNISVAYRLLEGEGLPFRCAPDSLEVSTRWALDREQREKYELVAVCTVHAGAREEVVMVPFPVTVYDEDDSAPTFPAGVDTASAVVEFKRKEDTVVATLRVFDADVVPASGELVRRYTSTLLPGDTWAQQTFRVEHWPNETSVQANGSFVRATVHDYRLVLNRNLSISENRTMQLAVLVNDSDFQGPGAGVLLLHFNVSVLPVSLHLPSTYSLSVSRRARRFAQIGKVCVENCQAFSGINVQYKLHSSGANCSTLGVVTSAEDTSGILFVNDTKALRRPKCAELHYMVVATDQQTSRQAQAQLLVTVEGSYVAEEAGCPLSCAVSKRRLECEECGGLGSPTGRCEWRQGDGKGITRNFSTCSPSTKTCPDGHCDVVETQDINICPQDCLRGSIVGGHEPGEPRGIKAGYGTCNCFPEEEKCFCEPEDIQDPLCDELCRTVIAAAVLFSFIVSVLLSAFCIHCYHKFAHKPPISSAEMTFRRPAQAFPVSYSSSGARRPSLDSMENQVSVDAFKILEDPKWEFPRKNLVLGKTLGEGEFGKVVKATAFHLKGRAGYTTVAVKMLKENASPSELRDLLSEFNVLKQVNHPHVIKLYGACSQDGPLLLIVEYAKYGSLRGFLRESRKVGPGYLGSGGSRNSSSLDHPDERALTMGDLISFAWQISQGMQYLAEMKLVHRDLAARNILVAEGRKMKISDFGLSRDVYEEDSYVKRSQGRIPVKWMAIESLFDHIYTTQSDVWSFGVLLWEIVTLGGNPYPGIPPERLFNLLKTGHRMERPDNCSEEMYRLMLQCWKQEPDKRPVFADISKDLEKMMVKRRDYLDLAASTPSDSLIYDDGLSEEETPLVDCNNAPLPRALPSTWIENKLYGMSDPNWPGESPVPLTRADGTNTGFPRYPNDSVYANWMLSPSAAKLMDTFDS

The term IC50 denotes the midpoint of a concentration-inhibition curve. As to `O=C(Cc1ccc(Cl)c(COc2ccccc2)c1)c1cccc(C(F)(F)F)c1`, the IC50 in data set [1] is 92.5 nM.

By inhibition is commonly meant the share of the control response that was lost under treatment. `CCc1cccc2c(/C=C3\NC(=S)N(c4ccc(C)c(C)c4)C3=O)cn(CC(=O)NCCOC)c12` showed an inhibition in data set [2] of 70.4%. With `O=C(CN1CN(c2ccccc2)C2(CCN(C(=O)c3ccc4[nH]ncc4c3)CC2)C1=O)NCC(F)(F)F`, the IC50 in data set [3] is 820 nM; in data set [4] it was 15 nM.

As for `Cc1cccc(Cl)c1NC(=O)c1cnc(Nc2cc(N3CCN(C(=O)OCCN4CCOCC4)CC3)ncn2)s1`, the results for the IC50 in data set [5] and in data set [6] were 7.04 nM and 2.26 nM, respectively. The term clearance denotes a measure of how efficiently the substance is removed, as volume per time. A lower clearance goes with inefficient removal. As for `O=C(CN1C(=O)C2(CCN(C(=O)c3ccc4[nH]ncc4n3)CC2)c2c(Br)cccc21)NCC(F)(F)F`, in [7], the clearance turned out to be 103 mL/min/kg. For the same molecule, the CLH in data set [8] was 10 µL/min/mg. One may read the Kd as the equilibrium constant for the complex coming apart. Regarding `CCc1ccc(C(=O)Nc2cc(CN3CCN(C)CC3)cc(C(F)(F)F)c2)cc1-c1cccc(-c2cnc3ccnn3c2)c1`, inhibition in data set [1] was half-maximal at 6.6 nM (IC50). In addition, the dissociation constant Kd in data set [9] turned out to be 2.2 nM. In the case of `CC(=O)Nc1ccc(-n2nc3c(=O)[nH]nc(N)c3c2-c2oc3cc(C(=O)Nc4ccccc4C(F)(F)F)ccc3c2C)cc1`, the concentration for half-maximal inhibition (IC50) in data set [1] was 10.2 nM.

Turning to `Cc1ccc2c(Nc3cccc(C(F)(F)F)c3)noc2c1C#Cc1cn2ncccc2n1`, the half-inhibitory concentration (IC50) in [4] came out at 10 nM. In data set [7], `CNC(=O)CN1CN(c2ccccc2)C2(CCN(C(=O)c3ccc4[nH]ncc4c3)CC2)C1=O` yielded a clearance of 110 mL/min/kg. Further, the CLH in data set [8] was 12 µL/min/mg.

A word on the EC50: it is the concentration that produces a half-maximal response. With `CCN1CCN(Cc2ccc(C(=O)Nc3ccc(C)c(Oc4ccc5c(c4)CC(=O)N5)c3)cc2C(F)(F)F)CC1`, in the data set on U2OS, the EC50 was found to be 86 nM. With `Cc1c(-c2c3c(N)n[nH]c(=O)c3nn2-c2ccc(C(N)=O)cc2)oc2cc(C(=O)Nc3ccccc3C(F)(F)F)ccc12`, in [1], the midpoint of inhibition, the IC50, lay at 10.6 nM. With `Cc1cccc(C(=O)N[C@@H](C)c2ccc(C3CC3)c(-c3ccc4nc(Nc5cnn(C6CC6)c5)ncc4c3)c2)c1`, the inhibition in data set [10] came out at 24.2%. In data set [11], this molecule displayed an IC50 of 31 nM.

For orientation: solubility means the dissolved amount per volume that the medium holds. A high value points to a readily soluble substance. For the molecule `O=C(CN1CN(c2ccccc2)C2(CCN(C(=O)c3ccc4[nH]ncc4n3)CC2)C1=O)NCC(F)(F)F`, the half-maximal inhibitory concentration (IC50) in data set [3] was 858 nM; in data set [4] it was 18 nM. The clearance in data set [7] came out at 120 mL/min/kg. This molecule displayed a solubility in data set [12] of 365 µg/mL (≈ 708 µM). The CLH in [8] is 28 µL/min/mg. As to `Cc1ccc(C(=O)Nc2cccc(C(F)(F)F)c2)cc1Nc1cncc(C(N)=O)c1`, the CLint in [13] was 60 µL/min/mg. `O=C(Nc1cccc(C(F)(F)F)c1)c1ccc(C2CC2)c(-c2ccc3nc(Nc4cnn(C5CC5)c4)ncc3c2)c1`: in data set [14], half-maximal inhibition (IC50) required 17.2 nM. Also, the inhibition in data set [15] was 18.6%; in [16], 100%. Turning to `Cc1ccc(C(=O)Nc2cccc(C(F)(F)F)c2)cc1-c1ccc2nc(Nc3cnn(C)c3)ncc2c1`, the concentration for half-maximal inhibition (IC50) in [17] is 2.2 nM. Besides, the inhibition in [15] was determined as 97.2%; in data set [18] it was 80.3%. `Cc1ccc(C(=O)Nc2cccc(C(F)(F)F)c2)cc1NCc1cccc(C(N)=O)c1` came in with an IC50 in [19] of 4.79 nM.
